Measured values from patent publication US6096711A, “Hsp72 induction and applications” (priority 1998, dated 2000).
Non-standard residues stand in square brackets, D forms with d. Residues, ends and D or L forms follow the SMILES beside them. *: point of attachment. Nle = CCCC[C@H](N)C(=O)O; Cbz = O=C(OCc1ccccc1)*

Assays:
Hsp72 [1] = experiment: Hsp72 induction in young and old IMR90 cells; assay type: cell-based, Human; conditions: compared with mild heat shock of young cells
Description: Human lung fibroblasts IMR90 which underwent either 12-17 divisions ("young" cells) or 62-67 divisions ("old" cells) were grown in MEM medium supplemented with 20% bovine fetal serum and 2mM glutamine. The cells were seeded at a density of 1.105 cells/35 mm plate and grown at 37° C. in an atmosphere of 95% air and 5% CO2. Cultures were split when cell density reached confluency. MG132 was purchased from Biomol Res Lab, Inc, PA. Anti-Hsp72 antibody (SPA810) was from StressGene Biotechnologies Corp (Canada).
(§1) Young and old cells were incubated with either […] of MG132 for 5 hours, washed with PBS and incubated in a fresh medium for an additional 12 hours.

JNK [2] = experiment: JNK activation by heat shock in IMR90 cells pretreated with MG132; assay type: cell-based, Human
Description: as §1
JNK activity was assayed using GST-c-Jun protein as a substrate after immunoprecipitation with anti-JNK1 antibodies (sc-474, Santa Cruz Biotechnology, Inc., CA). Briefly, cells were lysed in a buffer containing 20 mm Tris-HCl, pH 7.4, 50 mm NaCl, 2 mm EDTA, 1% Triton X-100, 25 mm b-glycerophosphate, 10 mm NaF, 1 mm Na3VO4, and protease inhibitors (1 mm PMSF and 25 mg/ml each of aprotenin, pepstatin, leupeptin). After immunoprecipitation with anti-JNK1 antibody and protein A-sepharose for 2 h at 4° C. and washing, kinase reaction was carried out in a buffer containing 25 mm HEPES, 10 mm MgCl2, 2 mm DTT, 25 mm b-glycerophosphate, 2 mm Na3VO4 and 25 mCi 32P-g-ATP at 37° C. for 10 min. Then the samples were subjected to SDS-PAGE followed by transfer to a nitrocellulose membrane and autoradiography. This membrane was later used for immunoblot with anti-JNK1 antibody to ensure that equal amounts of the kinase were immunoprecipitated.

[3] = tested on: Human lung fibroblasts IMR90; experiment: Heat-induced apoptosis in IMR90 cells; assay type: cell-based; conditions: young and old IMR90 cells pretreated with MG132
Description: as §1
Young and old cells were subjected to heat shock at 45° C. for different time periods followed by incubation at 37° C. After 24 hours cells were stained with Hoechst 33342 according to manufacturer's specifications.

Hsp72 [4] = experiment: Hsp72 induction in U937 cells; assay type: cell-based, human; design: accumulation of Hsp72: dose or concentration left out as unconfirmed; conditions: for levels of Hsp72: incubation of U937 cells with the compound
Description: (§2) U937 human lymphoid tumor cells were grown in RPMI-1640 medium with 10% fetal bovine serum and were used for experiments while in the mid log-phase (3-7.105 cells/ml). 293 human cells were grown in DMEM medium with 10% fetal bovine serum and were used in transient transfection experiments while at 40% of confluence. MG132 was purchased from Biomol Res Lab, Inc, PA. aLLN was purchased from Sigma, MO. MG132 analogs were synthesized and purified by HPLC. Anti-hsp72 antibody (SPA810) was from StressGene Biotechnologies Corp (Canada), anti-p53 antibody (PAb1801) was from SantaCruz Biotechnology, Inc, Calif.

JNK [5] = experiment: JNK assay in U937 cells; assay type: cell-based, human; design: JNK activation by the compound itself: dose or concentration left out as unconfirmed
Description: as §2
JNK activity was assayed using GST-c-Jun protein as a substrate after immunoprecipitation with anti-JNK1 antibodies (sc-474, Santa Cruz Biotechnology, Inc., Calif.), or anti-HA antibody for transfected JNK (Berkley Antibody Company). Briefly, cells were lysed in a buffer containing 20 mM Tris-HCl, pH 7.4, 50 mM NaCl, 2 mM EDTA, 1% Triton X-100, 25 mM b-glycerophosphate, 10 mM NaF, 1 mM Na3VO4, and protease inhibitors (1 mM PMSF and 25 mg/ml each of aprotenin, pepstatin, leupeptin). After immunoprecipitation with anti-JNK1 or anti-HA antibody and protein A-sepharose for 2 h at 4° C. and washing, kinase reaction was carried out in a buffer containing 25 mM HEPES, 10 mM MgCl2, 2 mM DTT, 25 mM b-glycerophosphate, 2 mM Na3 VO4 and 25 mCi 32P-g-ATP at 37° C. for 10 min. Samples were then subjected to SDS-PAGE followed by transfer to a nitrocellulose membrane and autoradiography. This membrane was later used for immunoblot with anti-JNK1 antibody to ensure that equal amounts of the kinase were immunoprecipitated. p38 kinase activity was determined by Western blot with polyclonal antibody (New England Biolabs, MA) specifically recognizing the phosphorylated (active) form of p38. Later the same blot was treated with anti-p38 antibody (New England Biolabs, Mass.) to assure equal loading of the kinase on different lanes.

[6] = tested on: U937 human lymphoid tumor cells; experiment: Apoptosis / cell death of U937 cells; assay type: cell-based; design: induction of apoptosis by the compound itself: dose or concentration left out as unconfirmed
Description: as §2
PARP degradation was followed by Western blotting with anti-PARP monoclonal antibodies (C2-10, G. Poirier, Montreal, Canada). Apoptosis of 293 cells was detected by cleavage of a truncated form of Ul-70 kDa protein d12 (Romac, J. M. J. et al., Mol Cell Biol 14: 4662-4670 (1994)). Cells were transfected by calcium phosphate method with a plasmid encoding d12 tagged with T7 epitope alone or together with a dominant-negative mutant forms of SEK1 (K/R) or c-jun (TAM67). After 48 hours cells were either treated with […] MG132 or subjected to heat shock at 45° C. for 15 min. After additional 24 hours cells were lysed and cleavage of d12 was detected by Western blot with anti-T7 epitope antibody.

Hsp40 = Hsp40 induction in U937 cells; assay type: cell-based, human; conditions: incubation of U937 cells with MG132
Description: as §2

Hsp27 = Hsp27 induction in U937 cells; assay type: cell-based, human; conditions: incubation of U937 cells with MG132
Description: as §2

[7] = tested on: chymotrypsin-like activity of the proteasome; conditions: cited from earlier work; for Ki: slow binding inhibitors, Vinitsky et al.

CC(C)C[C@@H](C=O)NC(=O)[C@H](CC(C)C)NC(=O)[C@H](CC(C)C)NC(=O)OCc1ccccc1 [MG132] (Cbz-Leu-Leu-Leu-aldehyde)
Hsp72 levels induced (Hsp72 [1]): exceeded those triggered in young cells by a mild heat shock
JNK activation by heat shock of various severity (JNK [2]): strongly suppressed in both young and old cells
protection from heat-induced apoptosis [3]: protected from apoptosis
accumulation of Hsp72 (Hsp72 [4]; after several hours of recovery): strong accumulation of Hsp72
levels of Hsp72 (Hsp72 [4]): dramatically increase
JNK activation by the compound itself (JNK [5]; followed by withdrawal): activated JNK only temporally
JNK activation by severe heat shock (JNK [5]; pretreated versus untreated U937 cells): much lesser activation
activation of JNK by TNF (JNK [5]; pretreatment with MG132): strongly suppressed
activation of JNK by ethanol (JNK [5]; pretreatment with MG132): strongly suppressed
induction of apoptosis by the compound itself ([6]; followed by withdrawal): insufficient to induce apoptosis
effect of long incubation on JNK and apoptosis ([6]; long incubation of U937 cells): prolonged activation of JNK leading to apoptosis
TNF-induced apoptosis ([6]; pretreatment with MG132): did not rescue cells from TNF-induced apoptosis and even potentiated it
cell death caused by ethanol ([6]; pretreatment with MG132): suppressed cell death caused by ethanol
extent of cell death after heat shock ([6]; pretreatment with MG132, about 40% without pretreatment): negligible level
induction of Hsp40 (Hsp40): appeared to be induced
induction of Hsp27 (Hsp27): appeared to be induced

CC(C)CC(C=CS(C)(=O)=O)NC(=O)C(CC(C)C)NC(=O)C(CC(C)C)NC(=O)Cc1cc(I)c(O)c([N+](=O)[O-])c1 (centres unmarked) [NIP-L3VS]
levels of Hsp72 (Hsp72 [4]): dramatically increase

CC(C)C[C@@H](C=O)NC(=O)CNC(=O)CNC(=O)OCc1ccccc1 [Z-Gly-Gly-Leu-H] (Cbz-Gly-Gly-Leu-aldehyde)
inhibition of the chymotrypsin-like activity of the proteasome ([7]; Orlowski 1990): inhibits the chymotrypsin-like activity of the proteasome

CC(C)C[C@H](NC(=O)OCc1ccccc1)C(=O)N[C@@H](CC(C)C)C(=O)N[C@H](C=O)Cc1ccccc1 [Z-LLF-H, (benzyloxycarbonyl)-Leu-Leu-phenylalaninal] (Cbz-Leu-Leu-Phe-aldehyde)
Ki [7]: 0.46 µM

CC(C)C[C@H](NC(=O)[C@H](CC(C)C)NC(=O)[C@H](CC(C)C)NC(=O)OCc1ccccc1)C(N)=O [Z-LLL-amide] (Cbz-Leu-Leu-Leu-NH2)
levels of Hsp72 (Hsp72 [4]): did not lead to any significant induction

CCOC(=O)C(=O)[C@H](Cc1ccccc1)NC(=O)[C@H](CC(C)C)NC(=O)[C@H](CC(C)C)NC(=O)OCc1ccccc1 [Z-Leu-Leu-Phe-COOEt]
Ki [7]: 53 µM

CCCC[C@@H](C=O)NC(=O)[C@H](CC(C)C)NC(=O)[C@H](CC(C)C)NC(C)=O [aLLN] (Ac-Leu-Leu-[Nle]-aldehyde)
levels of Hsp72 (Hsp72 [4]): dramatically increase

CC(C)[C@H](O)[C@@]12NC(=O)[C@H](C)[C@@H]1OC2=O [lactacystin-β-lacton]
levels of Hsp72 (Hsp72 [4]): dramatically increase
